Experimental findings from PubChem BioAssay AID2060600 (Molecular Pharmacology Branch, DTP, NCI, 2025) are described below.

The experiment relates to 996289-038-R-J1-PDC complex spheroid viability. In words: Anticancer human tumor 996289-038-R-J1-PDC patient-derived colon adenocarcinoma cell line growth inhibition [CLK]. The conditions noted are these: for viability, T/C: stronger effect = lower value; for pIC50: curve of compound. The method in brief:
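Multi-cell-type spheroids combined patient-derived tumor cells with HUVEC endothelial cells and human mesenchymal stem cells. Paired agents were dosed in half-log steps down from about clinical Cmax, or from 10 microM where Cmax was unknown.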

Molecules are shown by their SMILES. pIC50: −log10 of the molar value. Values joined by “and” are separate entries in the source; they are usually repeats but may differ in a detail not shown here. Equal values may be shown once.
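Further: spheroids exposed to the agents for 7 days before readout.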

With `CCN1CCN(Cc2ccc(Nc3ncc(F)c(-c4cc(F)c5nc(C)n(C(C)C)c5c4)n3)nc2)CC1`, the pIC50 (usually the negative decadic logarithm of the IC50, by convention in mol/L) is less than 6.00. The viability, T/C (usually the result in the treated group divided by that in the control group, in per cent) (compound 0.00316 µM) was 93.4% and 99.5%. Besides, the viability, T/C (compound 0.01 µM) was 98.7% and 84%. Besides, the viability, T/C (compound 0.0316 µM) was 92.3% and 99.6%. Besides, the viability, T/C (compound 0.1 µM) is 91.2% and 96.8%. Under “compound 0.316 µM”, the viability, T/C is 86.5% and 94.9%. For the same compound, the viability, T/C (compound 1 µM) was 86.9% and 95%.
With `CC1COCCN1c1cc(C2(S(C)(=N)=O)CC2)nc(-c2ccnc3[nH]ccc23)n1` (stereo unspecified), the pIC50 was less than 5.00. The viability, T/C (compound 0.0316 µM) is 103% and 102%. Further, the viability, T/C (compound 0.1 µM) is 97.6% and 89.7%. The viability, T/C (compound 0.316 µM) was 96.9% and 106%. For the same compound, where the note is “compound 1 µM”, the viability, T/C was 97.9% and 102%. In addition, the viability, T/C (compound 3.16 µM) was 97.8% and 101%. For the setting “compound 10 µM”, the viability, T/C was 84.4% and 81.6%.
Consider `COC1C=CCC(C)C(C)S(=O)(=O)NC(=O)c2ccc3c(c2)N(CC2CCC21)CC1(CCCc2cc(Cl)ccc21)CO3` (stereo unspecified), for which the negative logarithm of the IC50 (pIC50) was 5.27 and 5.26. Also, the viability, T/C (compound 0.0316 µM) is 101% and 104%. Moreover, the viability, T/C (compound 0.1 µM) is 88.7% and 93.9%. The viability, T/C (compound 0.316 µM) was 93.5% and 97.9%. For the same compound, the viability, T/C (compound 1 µM) is 78.9% and 89.3%. Besides, the viability, T/C (compound 3.16 µM) was 64.2% and 59.8%. Also, the viability, T/C (compound 10 µM) was 33.9% and 39%.
